According to patent US9173841B2, “Polymer nanoparticle injection formulation composition containing rapamycin with improved water solubility, preparation method thereof, and anticancer composition for combined use with radiotherapy” (SAMYANG BIOPHARMACEUTICALS CORPORATION, priority 2009, dated 2015):

What was measured:
[1] = Experiment 4: in vivo pharmacokinetic behavior, rapamycin level in blood; parameters: species or system male Sprague-Dawley rats; conditions: rats, intravenous administration
Procedure: The in vivo pharmacokinetic behavior of the rapamycin-entrapping nanoparticle composition of Example 1 was evaluated. For animal experiment, male Sprague-Dawley rats weighing 210 to 250 g were used, and 0.3 ml of whole blood was taken from caudal vein every 5, 15 and 30 minutes, and 1, 2, 4, 8 and 24 hours after intravenous and subcutaneous injection of the dose of 5 mg/kg, on the basis of rapamycin. The collected whole blood was treated with the Protein Precipitation (PPT, Progress in Pharmaceutical and Biomedical Analysis, Volume 5, 2003, Pages 199-254) and then centrifuged to obtain 0.15 ml of clear supernatant which was analyzed to check the rapamycin concentration in blood by LC/MS/MS method.
The in vivo pharmacokinetic behavior of the rapamycin-entrapping nanoparticle composition of Example 2 was evaluated by means of the same method as in Experiment 1. However, the composition was administered via oral, intravenous or subcutaneous route in the dose of 10 mg/kg on the basis of rapamycin, and 0.3 ml of whole blood was taken from caudal vein every 15 and 30 minutes, and 1, 2, 4, 8, 24 and 48 hours after administration.

[2] = cited from earlier work
[3] = male, Sprague-Dawley, rat, whole blood, 10 mg/kg

AUC(0-t) ([1]; male, Sprague-Dawley, rat, whole blood, 10 mg/kg on the basis of rapamycin): 5370 ng·h/mL
AUC(0-inf) [1, 3]: 5600 ng·h/mL
Cmax [1, 3]: 2890 ng/mL
Tmax [1, 3]: 0.25 h
half-life [1, 3]: 10.5 h
F ([1]; 10 mg/kg, free sirolimus intravenous = 100): 100%
Structure (SMILES): CO[C@H]1C[C@@H]2CC[C@@H](C)[C@@](O)(O2)C(=O)C(=O)N2CCCC[C@H]2C(=O)O[C@H]([C@H](C)C[C@@H]2CC[C@@H](O)[C@H](OC)C2)CC(=O)[C@H](C)/C=C(\C)[C@@H](O)[C@@H](OC)C(=O)[C@H](C)C[C@H](C)/C=C/C=C/C=C/1C [rapamycin, Rapamycin]
solubility in water [2]: 1 to 2 µg/mL
